# Laboratory results published in patent US12318393B2, “Modulators of orphan nuclear receptors for NASH and other metabolic disorders” (Emory University, priority 2018, dated 2025).
# What was measured:
# [1] = Cellular toxicity assay in Huh-7 cells; assay type: cell-based; conditions: human, read-out: Cytotoxicity (IC50, μM) Huh-7
# Method: The toxicity of the compounds was assessed in human PBM, CEM (human lymphoblastoid), and Huh-7 cells, as described previously (see Schinazi R. F., Sommadossi J.-P., Saalmann V., Cannon D. L., Xie M.-Y., Hart G. C., Smith G. A. & Hahn E. F. Antimicrob. Agents Chemother. 1990, 34, 1061-67). Cycloheximide was included as positive cytotoxic control, and untreated cells exposed to solvent were included as negative controls. The cytotoxicity IC50 was obtained from the concentration-response curve using the median effective method described previously (see Chou T.-C. & Talalay P. Adv. Enzyme Regul. 1984, 22, 27-55; Belen'kii M. S. & Schinazi R. F. Antiviral Res. 1994, 25, 1-11).
# miR-122 = assay: Expression of RORα-regulated microRNA in Huh-7 cells (qRT-PCR); assay type: cell-based, human; conditions: 1 μM, 24 hours
# Method: Secreted microRNA levels in the medium of Huh-7 cells were analyzed by qRT-PCR and were normalized to spiked C. elegans miR-39. miR-18 and miR-93 served as controls for secreted microRNA and were not affected following Compound 1 addition.
# RNA extraction and quantitative Real-Time PCR analysis. Total RNA, including small RNAs, were isolated from 200 μL of plasma or culture media samples using the miRNeasy Mini kit (Qiagen, Valencia, CA, USA) with 2 minor modifications. First, 200 μl of plasma or culture media were lysed with 1 ml of Qiazol solution. Second, a 50 pmol/l of synthesized single strand Caenorhabditis elegans miRNA (cel-miR-39) was added as the spike-in control to monitor extraction efficiency. The remainder of the RNA extraction was performed according to the manufacturer's instructions. miRNAs were eluted with 30 μl of RNase-free water. […] The fold expression and statistical significance were calculated using the 2-ΔΔ Ct method. […]
# [2] = tested on: C57BL/6 mice fed with high fat diet (HFD); assay: HFD-fed C57BL/6 mouse model of NASH, Compound 1 15 mg/kg; assay type: in vivo
# Method: To determine the liver and muscle lipid content, muscle and liver tissues (40-80 mg) were homogenized in 0.5 ml of chloroform: Tris solution (v/v, 1:1), the homogenate was transferred to 1 ml of chloroform:methanol solution (v/v, 2:1) centrifuged at 3000 g (at −2° C.) for 10 min (Heraeus Megafuge 16R centrifuge). The organic phase was mixed with 5% Triton X100 in chloroform, dried and re-dissolved in water. After lipid extraction, triglyceride (TG) concentration in samples was measured with Triglyceride Quantification Kit (BioVision), according to the manufactures instructions. Plasma Free fatty acids and β-hydroxybutyrate were determined utilizing commercial colorimetric kits (BioVision) directly from plasma samples.
# Male C57BL/6J mice, 7 to 8 weeks old, were housed randomly in standard cages and were fed a HFD, or atherogenic diet (consisting 1% Chol and 0.5% cholic acid, see also Table 3). All mice had free access to water during the experimental period. During the feeding period body weight was monitored every 3 days. In the HFD experiment, after 4 or 6 weeks, the resultant obese mice were treated with antagomiR-122 ([…] once a week for 3 weeks), or i.p. injected with Compound 1 (RORα agonist, 7.5 mg/kg twice a week for 3 weeks; or 15 mg/kg 3 times a week for 3 weeks). The obese control (HFD) group was administered only saline with DMSO and antagomiR-control. After 3 weeks of treatment mice were sacrificed and livers were taken for RNA-seq analysis. Livers, white adipose, and skeletal muscle tissues were frozen in liquid nitrogen or in optimum cutting temperature embedded frozen blocks, for further RNA and histologic analysis. In the atherogenic diet experiment mice were treated with 15 mg/kg Compound 1 after 3 weeks with the diet. After 3.5 weeks of treatment, mice were sacrificed, and the livers were frozen in liquid nitrogen or in optimum cutting temperature embedded frozen blocks. Plasma was collected from atherogenic diet-fed mice and saved in −20° C. for ALT and AST analysis using the Reflotron® Analyzer and test-strips (Roche).
# Experimental design: C57BL/6 mice fed for 6 weeks with high fat diet (HFD) were injected with 15 mg/kg Compound 1 (or saline+DMSO) 3 times a week for 3 weeks (n=6).
# Experimental design: C57BL/6 mice fed for 6 weeks with HFD were injected with 15 mg/kg Compound 1 (or saline+DMSO) 3 times a week for 3 weeks (n=6).
# [3] = 15 mg/kg 3 times a week for 3 weeks
compound,measurement,setting,value
O=C1Nc2cc(C(=O)N3CCC(Cc4ccccc4)CC3)ccc2Nc2ccccc21 [Compound 1],IC50,[1],10.4 µM
same,secreted miR-18 and miR-93 levels in medium (control microRNAs),miR-122,not affected
same,secretion of miR-122 (relative microRNA levels in Huh7 medium),miR-122; vs DMSO,specifically increases
same,body weight at end of experiment,[2]; [3],significantly reduced
same,decrease of (liver) triglyceride levels compared to untreated HFD mice,[2]; [3],5 fold
same,expression and secretion of miR-122 and precursors in plasma and liver,[2]; [3],induced
same,hepatic lipid droplets,[2]; [3],reduced
same,"liver/body weight ratio, treated vs untreated group",[2]; [3],decrease
same,expression of RORα-regulated genes FGF21 and Gpase6,"[2]; 15 mg/kg 3 times a week for 3 weeks, liver",significantly induced
same,WAT inflammation,[2]; mice with established NASH on HFD,reducing
